ChEMBL document CHEMBL1201862, “PubChem BioAssay data set” (2004)
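Five compound concentrations were applied to cells in 96-well plates for 48 hours; endpoints were derived by simple linear interpolation of the resulting dose-response curve. GI50 = concentration required for 50% inhibition of growth.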 Calls of active or inactive are those of the source. Rule as the data show it: active = GI50 up to about 1.1 µM and inactive = higher.

Experiments:
Experiment in all cases: NCI anticancer screen, dose series, 48 h
[1] = system: A498
[2] = system: ACHN
[3] = system: CAKI-1
[4] = system: HCT-116
[5] = system: HCT-15
[6] = system: HL-60
[7] = system: HOP-62
[8] = system: MOLT-4
[9] = system: NCI-H460
[10] = system: NCI-H522
[11] = system: OVCAR-5
[12] = system: OVCAR-8
[13] = system: RPMI-8226
[14] = system: SF-295
[15] = system: SF-539
[16] = system: SK-MEL-28
[17] = system: SK-OV-3
[18] = system: SN12C
[19] = system: UACC-257
[20] = system: UACC-62

SMILES	GI50 [1]	GI50 [2]	GI50 [3]	GI50 [4]	GI50 [5] [µM]	GI50 [6]	GI50 [7]	GI50 [8]	GI50 [9]	GI50 [10]	GI50 [11]	GI50 [12]	GI50 [13]	GI50 [14]	GI50 [15]	GI50 [16]	GI50 [17]	GI50 [18]	GI50 [19]	GI50 [20]
CCCSc1ccc2[nH]c(N3C(=O)/C(=C/c4cc(OC)c(OC)c(OC)c4)N=C3c3ccccc3)cc2c1	0.871 µM (active)	23 µM (inactive)	11.9 µM (inactive)	16.5 µM (inactive)	12.2	5.66 µM (inactive)	1.39 µM (inactive)	10.9 µM (inactive)	12.5 µM (inactive)	8.97 µM (inactive)	17.7 µM (inactive)	12.6 µM (inactive)	9.18 µM (inactive)	1.25 µM (inactive)	1.72 µM (inactive)	12.9 µM (inactive)	1.6 µM (inactive)	16.4 µM (inactive)	13.8 µM (inactive)	8.61 µM (inactive)
COc1cccc(N/C(C)=C2/CCOC2=O)c1	> 10 µM (inactive)	5.33 µM (inactive)	> 10 µM (inactive)	> 10 µM (inactive)	5.08	> 10 µM (inactive)	> 10 µM (inactive)	> 10 µM (inactive)	> 10 µM (inactive)	> 10 µM (inactive)	> 10 µM (inactive)	> 10 µM (inactive)	> 10 µM (inactive)	> 10 µM (inactive)	> 10 µM (inactive)	> 10 µM (inactive)	> 10 µM (inactive)	> 10 µM (inactive)		> 10 µM (inactive)
O=C(CCl)NC(Cc1ccc(F)cc1)C(=O)O (stereo unspecified)	> 100 µM (inactive)		> 100 µM (inactive)	> 100 µM (inactive)	> 100	> 100 µM (inactive)	> 100 µM (inactive)	> 100 µM (inactive)	> 100 µM (inactive)	> 100 µM (inactive)	> 100 µM (inactive)	> 100 µM (inactive)	> 100 µM (inactive)	> 100 µM (inactive)	> 100 µM (inactive)	> 100 µM (inactive)	> 100 µM (inactive)	> 100 µM (inactive)	> 100 µM (inactive)	> 100 µM (inactive)
Cc1sc(Cc2ccccc2)nc1-c1ccc(N)cc1	29.4 µM (inactive)	31.2 µM (inactive)	24 µM (inactive)	20.2 µM (inactive)	19.8	26.2 µM (inactive)		13.8 µM (inactive)	23 µM (inactive)	16 µM (inactive)	32.5 µM (inactive)	31 µM (inactive)	16.3 µM (inactive)	37.4 µM (inactive)		30.9 µM (inactive)		21.1 µM (inactive)	30 µM (inactive)	15.1 µM (inactive)
Cc1c(C#N)c2nnn(C)c(=O)n2c1-c1ccccc1	98.6 µM (inactive)	> 100 µM (inactive)	> 100 µM (inactive)		> 100	30.8 µM (inactive)	> 100 µM (inactive)		> 100 µM (inactive)		> 100 µM (inactive)	48.2 µM (inactive)	84.9 µM (inactive)	51.6 µM (inactive)	> 100 µM (inactive)	> 100 µM (inactive)	> 100 µM (inactive)	> 100 µM (inactive)	34.4 µM (inactive)	> 100 µM (inactive)
O=C(CSc1nc2ccccc2c2ccccc12)c1ccccc1	> 100 µM (inactive)	> 100 µM (inactive)	> 100 µM (inactive)	> 100 µM (inactive)	> 100	> 100 µM (inactive)	> 100 µM (inactive)	> 100 µM (inactive)	> 100 µM (inactive)	> 100 µM (inactive)	> 100 µM (inactive)	> 100 µM (inactive)	> 100 µM (inactive)	> 100 µM (inactive)	> 100 µM (inactive)	> 100 µM (inactive)		> 100 µM (inactive)	> 100 µM (inactive)	> 100 µM (inactive)
CC(C)OP(=O)(OC(C)C)/C(=N/Nc1ccc([N+](=O)[O-])cc1)NCCO	3.15 µM (inactive)	54.1 µM (inactive)	> 100 µM (inactive)	> 100 µM (inactive)	72.8	42.7 µM (inactive)	> 100 µM (inactive)	48.9 µM (inactive)	> 100 µM (inactive)	> 100 µM (inactive)	> 100 µM (inactive)	> 100 µM (inactive)	> 100 µM (inactive)		> 100 µM (inactive)	> 100 µM (inactive)		> 100 µM (inactive)	> 100 µM (inactive)	26.2 µM (inactive)
O=c1ccc2ccc(S)cc2o1	> 100 µM (inactive)	> 100 µM (inactive)	> 100 µM (inactive)	> 100 µM (inactive)	> 100	> 100 µM (inactive)	> 100 µM (inactive)	42 µM (inactive)	> 100 µM (inactive)	87.3 µM (inactive)	> 100 µM (inactive)	> 100 µM (inactive)	99.8 µM (inactive)	> 100 µM (inactive)	> 100 µM (inactive)	> 100 µM (inactive)	> 100 µM (inactive)	> 100 µM (inactive)	> 100 µM (inactive)	> 100 µM (inactive)
COc1cc(Nc2c3ccccc3nc3ccccc23)ccc1NS(C)(=O)=O	6.31 µM (inactive)	4.11 µM (inactive)	3.02 µM (inactive)	3.27 µM (inactive)		4.79 µM (inactive)	7.6 µM (inactive)	40.7 µM (inactive)	2.64 µM (inactive)	3.42 µM (inactive)	11 µM (inactive)	4.5 µM (inactive)	2.83 µM (inactive)	3.84 µM (inactive)	4.41 µM (inactive)	7.52 µM (inactive)	14.7 µM (inactive)	2.58 µM (inactive)	11.9 µM (inactive)	6.61 µM (inactive)
COc1cc(Nc2nc3cc(C(F)(F)F)ccc3n3cccc23)cc(OC)c1OC	> 100 µM (inactive)	> 100 µM (inactive)	> 100 µM (inactive)	> 100 µM (inactive)	> 100	0.762 µM (active)	> 100 µM (inactive)	8.49 µM (inactive)		> 100 µM (inactive)	> 100 µM (inactive)	> 100 µM (inactive)	> 100 µM (inactive)	5.02 µM (inactive)	> 100 µM (inactive)	> 100 µM (inactive)	> 100 µM (inactive)	32.4 µM (inactive)	> 100 µM (inactive)	> 100 µM (inactive)
CC(O)C(O)C(N)CC=O (stereo unspecified)	36.1 µM (inactive)		> 500 µM (inactive)	> 500 µM (inactive)	> 500	495 µM (inactive)	> 500 µM (inactive)	> 500 µM (inactive)	> 500 µM (inactive)	79.3 µM (inactive)	175 µM (inactive)	> 500 µM (inactive)	> 500 µM (inactive)	> 500 µM (inactive)	> 500 µM (inactive)	> 500 µM (inactive)	> 500 µM (inactive)	> 500 µM (inactive)	> 500 µM (inactive)	> 500 µM (inactive)
C=CCN1C(N)=C(C(N)=O)S/C1=C1/SC(=S)N(c2ccc(C)cc2)C1=O	3.65 µM (inactive)	> 100 µM (inactive)		> 100 µM (inactive)		> 100 µM (inactive)		> 100 µM (inactive)	> 100 µM (inactive)	> 100 µM (inactive)	5.66 µM (inactive)	> 100 µM (inactive)	> 100 µM (inactive)	49.8 µM (inactive)	> 100 µM (inactive)	> 100 µM (inactive)	> 100 µM (inactive)		> 100 µM (inactive)	> 100 µM (inactive)
Cc1c2ccnc(C(F)(F)F)c2cc2c1[nH]c1ccccc12	11.4 µM (inactive)		> 125 µM (inactive)	> 125 µM (inactive)	> 125	> 125 µM (inactive)	73.3 µM (inactive)	85.1 µM (inactive)	123 µM (inactive)	> 125 µM (inactive)	> 125 µM (inactive)	110 µM (inactive)	85.1 µM (inactive)	23.2 µM (inactive)	99.1 µM (inactive)	> 125 µM (inactive)	36.3 µM (inactive)	> 125 µM (inactive)	> 125 µM (inactive)	> 125 µM (inactive)
Cn1cc(C(=O)/C(Cl)=C(\Cl)C(=O)O)c2ccccc21	> 100 µM (inactive)	> 100 µM (inactive)	> 100 µM (inactive)	> 100 µM (inactive)	> 100	> 100 µM (inactive)	> 100 µM (inactive)	> 100 µM (inactive)	> 100 µM (inactive)		> 100 µM (inactive)	> 100 µM (inactive)	> 100 µM (inactive)	> 100 µM (inactive)	> 100 µM (inactive)	> 100 µM (inactive)	> 100 µM (inactive)		> 100 µM (inactive)	> 100 µM (inactive)
CC(C)(C)CI	41.6 µM (inactive)	20.7 µM (inactive)		18.5 µM (inactive)	33	22.9 µM (inactive)		37.2 µM (inactive)	27.9 µM (inactive)	17.5 µM (inactive)	32.2 µM (inactive)	> 10 µM (inactive)		18.5 µM (inactive)	88.5 µM (inactive)	50.6 µM (inactive)	48.4 µM (inactive)	18.4 µM (inactive)	21.2 µM (inactive)	29.9 µM (inactive)
